Legend:
ducksalad = experiment: Test B flooded paddy test; type: in vivo, Heteranthera limosa; conditions: Flood, scale of 0 to 100 where 0 is no effect and 100 is complete control
Method: (§1) Plant species in the flooded paddy test selected from rice (Oryza sativa), sedge, umbrella (small-flower umbrella sedge, Cyperus difformis), ducksalad (Heteranthera limosa), and barnyardgrass (Echinochloa crus-galli) were grown to the 2-leaf stage for testing. At time of treatment, test pots were flooded to 3 cm above the soil surface, treated by application of test compounds directly to the paddy water, and then maintained at that water depth for the duration of the test. Treated plants and controls were maintained in a greenhouse for 13 to 15 days, after which time all species were compared to controls and visually evaluated. Plant response ratings, summarized in Table B, are based on a scale of 0 to 100 where 0 is no effect and 100 is complete control. A dash (-) response means no test result.

barnyardgrass [1] = experiment: Test A pre-/postemergence herbicide test; type: in vivo, Echinochloa crus-galli
In short: (§2)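 Directed soil spray to seeded pots (preemergence) or spray onto one- to two-leaf seedlings 2–10 cm tall (postemergence); loam/sand substrate throughout. Evaluated visually after about 10 days against untreated plants, 0 = no effect, 100 = complete control.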

crabgrass, large = experiment: Test A pre-/postemergence herbicide test; type: in vivo, Digitaria sanguinalis
In short: as §2

giant foxtail = experiment: Test A pre-/postemergence herbicide test; type: in vivo, Setaria faberii
In short: as §2

rice = experiment: Test B flooded paddy test; type: in vivo, Oryza sativa; conditions: Flood, scale of 0 to 100 where 0 is no effect and 100 is complete control
Method: as §1

wheat = experiment: Test A pre-/postemergence herbicide test; type: in vivo, Triticum aestivum
In short: as §2

pigweed = experiment: Test A pre-/postemergence herbicide test; type: in vivo, Amaranthus retroflexus
In short: as §2

velvetleaf = experiment: Test A pre-/postemergence herbicide test; type: in vivo, Abutilon theophrasti
In short: as §2

morningglory = experiment: Test A pre-/postemergence herbicide test; type: in vivo, Ipomoea spp.
In short: as §2

barnyardgrass [2] = experiment: Test B flooded paddy test; type: in vivo, Echinochloa crus-galli; conditions: Flood, scale of 0 to 100 where 0 is no effect and 100 is complete control
Method: as §1

corn = experiment: Test A pre-/postemergence herbicide test; type: in vivo, Zea mays
In short: as §2

sedge, umbrella = experiment: Test B flooded paddy test; type: in vivo, Cyperus difformis; conditions: Flood, scale of 0 to 100 where 0 is no effect and 100 is complete control
In short: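 Paddy-water application at a 3 cm flood, young plants having two leaves. Water level maintained; greenhouse, 13–15 days; visual 0–100 control rating.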

[3] = Postemergence, 125 g ai/ha, 0 to 100 scale, 0 no effect, 100 complete control
[4] = Postemergence, 500 g ai/ha, 0 to 100 scale (0 no effect, 100 complete control)
[5] = Preemergence, 125 g ai/ha, visual rating on 0 to 100 scale (0 no effect, 100 complete control)
[6] = preemergence, 500 g ai/ha, 0 to 100 scale (0 no effect, 100 complete control)
[7] = preemergence, 500 g ai/ha, 0 to 100 scale
[8] = Postemergence, 1000 g ai/ha, 0 to 100 scale (0 no effect, 100 complete control)
[9] = Preemergence, 1000 g ai/ha, visual rating on 0 to 100 scale (0 no effect, 100 complete control), approx. 10 days
[10] = preemergence, 1000 g ai/ha, 0 to 100 scale

O=C1NCC(c2ccc3c(c2)OC(F)(F)O3)C1C(=O)Nc1ccccc1C(F)(F)F (racemic) [Compound 75]
Plant response rating, Ducksalad (ducksalad; 250 g ai/ha): 0 | Plant response rating, Barnyardgrass (barnyardgrass [1]; [3]): 40 | Plant response rating, Barnyardgrass (barnyardgrass [1]; [4]): 70 | Barnyardgrass plant response rating (barnyardgrass [1]; [5]): 50 | Plant response rating, Barnyardgrass (barnyardgrass [1]; [6]): 70 | Plant response rating, Crabgrass, Large (crabgrass, large; [3]): 60 | Plant response rating, Crabgrass, Large (crabgrass, large; [4]): 80 | Crabgrass, Large plant response rating (crabgrass, large; [5]): 90 | Plant response rating, Crabgrass, Large (crabgrass, large; [7]): 90 | Plant response rating, Foxtail, Giant (giant foxtail; [3]): 70 | Plant response rating, Foxtail, Giant (giant foxtail; [4]): 80 | Foxtail, Giant plant response rating (giant foxtail; [5]): 80 | Plant response rating, Foxtail, Giant (giant foxtail; [7]): 90 | Plant response rating, Rice (rice; 250 g ai/ha): 0 | Plant response rating, Wheat (wheat; [3]): 0 | Plant response rating, Wheat (wheat; [4]): 30 | Wheat plant response rating (wheat; [5]): 0 | Plant response rating, Wheat (wheat; [7]): 30 | Plant response rating, Pigweed (pigweed; [3]): 0 | Plant response rating, Pigweed (pigweed; [4]): 0 | Pigweed plant response rating (pigweed; [5]): 0 | Plant response rating, Pigweed (pigweed; [7]): 0 | Plant response rating, Velvetleaf (velvetleaf; [3]): 10 | Plant response rating, Velvetleaf (velvetleaf; [4]): 20 | Velvetleaf plant response rating (velvetleaf; [5]): 0 | Plant response rating, Velvetleaf (velvetleaf; [7]): 0 | Plant response rating, Morningglory (morningglory; [3]): 0 | Plant response rating, Morningglory (morningglory; [4]): 0 | Morningglory plant response rating (morningglory; [5]): 0 | Plant response rating, Morningglory (morningglory; [7]): 0 | Plant response rating, Barnyardgrass (barnyardgrass [2]; 250 g ai/ha): 0 | Plant response rating, Corn (corn; [3]): 0 | Plant response rating, Corn (corn; [4]): 0 | Corn plant response rating (corn; [5]): 0 | Plant response rating, Corn (corn; [7]): 0 | Plant response rating, Sedge, Umbrella (sedge, umbrella; 250 g ai/ha): 0

O=C1NCC(c2ccccc2)C1C(=O)Nc1ccccc1Cl (racemic) [Compound 83]
Plant response rating, Ducksalad (ducksalad; 250 g ai/ha): 50 | Plant response rating, Barnyardgrass (barnyardgrass [1]; [4]): 60 | Barnyardgrass plant response rating (barnyardgrass [1]; [5]): 0 | Plant response rating, Barnyardgrass (barnyardgrass [1]; [6]): 50 | Plant response rating, Crabgrass, Large (crabgrass, large; [3]): 20 | Plant response rating, Crabgrass, Large (crabgrass, large; [4]): 70 | Crabgrass, Large plant response rating (crabgrass, large; [5]): 70 | Plant response rating, Crabgrass, Large (crabgrass, large; [7]): 90 | Plant response rating, Foxtail, Giant (giant foxtail; [3]): 0 | Plant response rating, Foxtail, Giant (giant foxtail; [4]): 50 | Foxtail, Giant plant response rating (giant foxtail; [5]): 0 | Plant response rating, Foxtail, Giant (giant foxtail; [7]): 70 | Plant response rating, Rice (rice; 250 g ai/ha): 0 | Plant response rating, Wheat (wheat; [3]): 0 | Plant response rating, Wheat (wheat; [4]): 0 | Wheat plant response rating (wheat; [5]): 0 | Plant response rating, Wheat (wheat; [7]): 0 | Plant response rating, Pigweed (pigweed; [3]): 0 | Plant response rating, Pigweed (pigweed; [4]): 0 | Pigweed plant response rating (pigweed; [5]): 0 | Plant response rating, Pigweed (pigweed; [7]): 0 | Plant response rating, Velvetleaf (velvetleaf; [3]): 0 | Plant response rating, Velvetleaf (velvetleaf; [4]): 0 | Velvetleaf plant response rating (velvetleaf; [5]): 0 | Plant response rating, Velvetleaf (velvetleaf; [7]): 0 | Plant response rating, Morningglory (morningglory; [3]): 0 | Plant response rating, Morningglory (morningglory; [4]): 0 | Morningglory plant response rating (morningglory; [5]): 0 | Plant response rating, Morningglory (morningglory; [7]): 0 | Plant response rating, Barnyardgrass (barnyardgrass [2]; 250 g ai/ha): 30 | Plant response rating, Corn (corn; [3]): 0 | Plant response rating, Corn (corn; [4]): 0 | Corn plant response rating (corn; [5]): 0 | Plant response rating, Corn (corn; [7]): 0 | Plant response rating, Sedge, Umbrella (sedge, umbrella; 250 g ai/ha): 0

O=C1NCC(c2ccccc2)C1C(=O)Nc1ccc(Br)cc1F (racemic) [Compound 84]
Plant response rating, Ducksalad (ducksalad; 250 g ai/ha): 0 | Plant response rating, Barnyardgrass (barnyardgrass [1]; [3]): 0 | Plant response rating, Barnyardgrass (barnyardgrass [1]; [4]): 0 | Barnyardgrass plant response rating (barnyardgrass [1]; [5]): 0 | Plant response rating, Barnyardgrass (barnyardgrass [1]; [6]): 0 | Plant response rating, Crabgrass, Large (crabgrass, large; [3]): 0 | Plant response rating, Crabgrass, Large (crabgrass, large; [4]): 20 | Crabgrass, Large plant response rating (crabgrass, large; [5]): 0 | Plant response rating, Crabgrass, Large (crabgrass, large; [7]): 50 | Plant response rating, Foxtail, Giant (giant foxtail; [3]): 0 | Plant response rating, Foxtail, Giant (giant foxtail; [4]): 0 | Foxtail, Giant plant response rating (giant foxtail; [5]): 0 | Plant response rating, Foxtail, Giant (giant foxtail; [7]): 0 | Plant response rating, Rice (rice; 250 g ai/ha): 0 | Plant response rating, Wheat (wheat; [3]): 0 | Plant response rating, Wheat (wheat; [4]): 0 | Wheat plant response rating (wheat; [5]): 0 | Plant response rating, Wheat (wheat; [7]): 0 | Plant response rating, Pigweed (pigweed; [3]): 0 | Plant response rating, Pigweed (pigweed; [4]): 0 | Pigweed plant response rating (pigweed; [5]): 0 | Plant response rating, Pigweed (pigweed; [7]): 0 | Plant response rating, Velvetleaf (velvetleaf; [3]): 0 | Plant response rating, Velvetleaf (velvetleaf; [4]): 0 | Velvetleaf plant response rating (velvetleaf; [5]): 0 | Plant response rating, Velvetleaf (velvetleaf; [7]): 0 | Plant response rating, Morningglory (morningglory; [3]): 0 | Plant response rating, Morningglory (morningglory; [4]): 0 | Morningglory plant response rating (morningglory; [5]): 0 | Plant response rating, Morningglory (morningglory; [7]): 0 | Plant response rating, Barnyardgrass (barnyardgrass [2]; 250 g ai/ha): 0 | Plant response rating, Corn (corn; [3]): 0 | Plant response rating, Corn (corn; [4]): 0 | Corn plant response rating (corn; [5]): 0 | Plant response rating, Corn (corn; [7]): 0 | Plant response rating, Sedge, Umbrella (sedge, umbrella; 250 g ai/ha): 0

O=C1NCC(c2ccc(F)c(F)c2)C1C(=O)Nc1cccnc1C(F)(F)F (racemic) [Compound 98]
Plant response rating, Ducksalad (ducksalad; 1000 g ai/ha): 90 | Plant response rating, Barnyardgrass (barnyardgrass [1]; [8]): 50 | Plant response rating, Barnyardgrass (barnyardgrass [1]; [9]): 50 | Plant response rating, Crabgrass, Large (crabgrass, large; [8]): 90 | Plant response rating, Crabgrass, Large (crabgrass, large; [9]): 90 | Plant response rating, Foxtail, Giant (giant foxtail; [8]): 60 | Plant response rating, Foxtail, Giant (giant foxtail; [9]): 90 | Plant response rating, Rice (rice; 1000 g ai/ha): 0 | Plant response rating, Wheat (wheat; [8]): 20 | Plant response rating, Wheat (wheat; [9]): 0 | Plant response rating, Pigweed (pigweed; [8]): 0 | Plant response rating, Pigweed (pigweed; [9]): 0 | Plant response rating, Velvetleaf (velvetleaf; [8]): 10 | Plant response rating, Velvetleaf (velvetleaf; [9]): 0 | Plant response rating, Morningglory (morningglory; [8]): 0 | Plant response rating, Morningglory (morningglory; [9]): 0 | Plant response rating, Barnyardgrass (barnyardgrass [2]; 1000 g ai/ha): 0 | Plant response rating, Corn (corn; [8]): 0 | Plant response rating, Corn (corn; [9]): 20 | Plant response rating, Sedge, Umbrella (sedge, umbrella; 1000 g ai/ha): 0

Cc1c(Cl)cccc1NC(=O)C1C(=O)NCC1c1ccc(F)c(F)c1 (racemic) [Compound 100]
Plant response rating, Ducksalad (ducksalad; 1000 g ai/ha): 75 | Plant response rating, Barnyardgrass (barnyardgrass [1]; [8]): 80 | Plant response rating, Barnyardgrass (barnyardgrass [1]; [9]): 90 | Plant response rating, Crabgrass, Large (crabgrass, large; [8]): 90 | Plant response rating, Crabgrass, Large (crabgrass, large; [9]): 90 | Plant response rating, Foxtail, Giant (giant foxtail; [8]): 80 | Plant response rating, Foxtail, Giant (giant foxtail; [9]): 90 | Plant response rating, Rice (rice; 1000 g ai/ha): 0 | Plant response rating, Wheat (wheat; [8]): 30 | Plant response rating, Wheat (wheat; [9]): 20 | Plant response rating, Pigweed (pigweed; [8]): 0 | Plant response rating, Pigweed (pigweed; [9]): 0 | Plant response rating, Velvetleaf (velvetleaf; [8]): 0 | Plant response rating, Velvetleaf (velvetleaf; [9]): 0 | Plant response rating, Morningglory (morningglory; [8]): 0 | Plant response rating, Morningglory (morningglory; [9]): 0 | Plant response rating, Barnyardgrass (barnyardgrass [2]; 1000 g ai/ha): 25 | Plant response rating, Corn (corn; [8]): 40 | Plant response rating, Corn (corn; [9]): 20 | Plant response rating, Sedge, Umbrella (sedge, umbrella; 1000 g ai/ha): 0

O=C1NCC(c2ccc(F)c(F)c2)C1C(=O)Nc1cccc(F)c1Cl (racemic) [Compound 108]
Plant response rating, Ducksalad (ducksalad; 1000 g ai/ha): 95 | Plant response rating, Barnyardgrass (barnyardgrass [1]; [8]): 90 | Plant response rating, Barnyardgrass (barnyardgrass [1]; preemergence, 1000 g ai/ha, 0 to 100 scale (0 no effect, 100 complete control)): 90 | Plant response rating, Crabgrass, Large (crabgrass, large; [8]): 90 | Plant response rating, Crabgrass, Large (crabgrass, large; [10]): 90 | Plant response rating, Foxtail, Giant (giant foxtail; [8]): 80 | Plant response rating, Foxtail, Giant (giant foxtail; [10]): 90 | Plant response rating, Rice (rice; 1000 g ai/ha): 0 | Plant response rating, Wheat (wheat; [8]): 0 | Plant response rating, Wheat (wheat; [10]): 0 | Plant response rating, Pigweed (pigweed; [8]): 0 | Plant response rating, Pigweed (pigweed; [10]): 0 | Plant response rating, Velvetleaf (velvetleaf; [8]): 10 | Plant response rating, Velvetleaf (velvetleaf; [10]): 0 | Plant response rating, Morningglory (morningglory; [8]): 10 | Plant response rating, Morningglory (morningglory; [10]): 0 | Plant response rating, Barnyardgrass (barnyardgrass [2]; 1000 g ai/ha): 50 | Plant response rating, Corn (corn; [8]): 0 | Plant response rating, Corn (corn; [10]): 0 | Plant response rating, Sedge, Umbrella (sedge, umbrella; 1000 g ai/ha): 0

From patent US10294202B2, “Pyrrolidinones as herbicides” (FMC Corporation, priority 2013, dated 2019)
